Results as given in patent US12728125B2, “Methods for treating neutropenia” (X4 Pharmaceuticals, Inc., priority 2020, dated 2026).
Marks after values point to notes of the source that are not given here.

Legend:
[1] = test system: WBC, neutrophil and lymphocyte counts; assay: Hematologic effects of a single oral dose in the male Beagle dog; type: in vivo
Experimental: Three fasted male Beagle dogs received a single dose of X4P-001 in aqueous solution by oral gavage at dose levels of 5, 15, and 35 mg/kg (1 dog per dose level) in a volume of 1 mL/kg. Blood samples (approximately 3 mL each) were obtained at multiple timepoints from each animal by direct venipuncture of the jugular vein and collected using Vacutainer® tubes containing K3EDTA as the anticoagulant. Blood samples were obtained at pre-dose, and 0.25, 0.5, 0.75, 1, 1.5, 2, 3, 4, 7, 12, and 24 hours post-dose. Blood samples were stored at ambient room temperature prior to automated differential analysis.
Body weights were determined prior to dosing on the day of test article administration.
Hematology parameters included the following: • White Blood Cell Count (WBC) • Differential white blood cell count (absolute and relative) • Neutrophil • Lymphocytes • Monocytes • Eosinophils • Basophils • Large Unstained Cells (LUC) • Hematocrit (HCT) • Hemoglobin (HGB) • Mean Corpuscular Hemoglobin (MCH) • Mean Corpuscular Hemoglobin Concentration (MCHC) • Mean Corpuscular Volume (MCV) • Platelet Count (PLT). • Red Blood Cell Count (RBC) Results

[2] = test system: hematology and coagulation; assay: 28-day GLP oral (capsule) toxicity study in the Beagle dog with 14-day recovery; type: in vivo
Experimental: A 28-Day GLP oral (capsule) toxicology study was conducted with […]-001 in the male and female beagle dog, and hematology effects were observed, with […]-001 administered twice-daily (at least 7 hours apart) by oral capsule for 28 days. A subset of treated animals was evaluated after a 14-day recovery period. [table] [table]

[3] = biological target: CXCR4 (Homo sapiens, UniProt P61073); details: SDF-1α dose/response in calcium flux with increasing X4P-001; cited from earlier work
[4] = test system: circulating CFU-GM, BFU-E, CFU-GEMM progenitor cells and nucleated cells; assay: Progenitor/stem cell mobilization in mice after single subcutaneous injection; type: in vivo, C3H/HeJ mice
Experimental: A further study was conducted to determine whether X4P-001 mobilizes progenitor/stem cells in mice. All experiments were performed in […] mice. X4P-001 and AMD3 100/plerixafor were administered via single subcutaneous injection at the doses described below. The mobilization capacity of X4P-001 was assessed by the numbers of granulocyte-macrophage (CFU-GM), erythroid (BFU-E) and multipotential (CFU-GEMM) progenitor cells per mL of blood. The progenitors were stimulated to form colonies in vitro with the combination of 1 U/mL rhu EPO, 50 ng/mL rmu SLF, 5% vol/vol pokeweed mitogen mouse spleen cell conditioned medium (PWMSCM), and 0.1 mM hemin. Plates were scored 7 days after incubation at 37° C., […] and in a humidified chamber.
In the first experiment (data shown in Table 7), mice received a dose of 5 mg/kg- and the number of progenitors in the circulating blood was measured at various time points (0.25, 0.5, 1, 2, 6 and 24 hours).
An X4P-001 dose-response was performed by measurement of the number of circulating progenitors in the blood at 1 hour post-injection at various doses (1.5, 2.5, 5, 10 and 20 mg/kg).
A final experiment was performed to compare the progenitor cell mobilization capacity of X4P-001 and AMD3100/plerixafor.

[5] = 400-mg single-dose subject (Stone, 2007); cited from earlier work
[6] = in vivo
Experimental: In certain embodiments, the dosage composition may be provided twice a day in divided dosage, approximately 12 hours apart. In other embodiments, the dosage composition may be provided once daily.

[7] = human, in vivo
Experimental: In some embodiments, the dose is selected to provide consistent clinically relevant elevations of both ANC and ALC, with low risk of significant adverse effects. Dosage of 400 mg per day BID for 3.5 days (healthy volunteers) (Stone 2007) and 200 mg BID for 8-10 days (healthy volunteers and HIV patients) were well-tolerated with no pattern of adverse events or clinically significant laboratory changes.

[8] = cited from earlier work; for Bone pain incidence, as high as: Ferguson 2015 (filgrastim), Kirshner 2012 (pegfilgrastim)
[9] = females, 10 mg/kg/d, Day 28, p < 0.05
[10] = females, 30 mg/kg/d, Day 28, p < 0.05
[11] = females, 100 mg/kg/d, Day 28, p < 0.05
[12] = males, 100 mg/kg/d, Day 28, p < 0.05
[13] = Table 7 time course, 5 mg/kg s.c., @ - 2′ (2 h)
[14] = Table 7 time course, 5 mg/kg s.c., @ - 6′ (6 h)
[15] = Table 7 time course, 5 mg/kg s.c., @ - 15″ ([…])
[16] = Table 7 time course, 5 mg/kg s.c., @ - 24′ (24 h)
[17] = Table 7 time course, 5 mg/kg s.c., @ - 30″ (0.5 h)
[18] = Table 7 time course, 5 mg/kg s.c., @ - 60″ (1 h)
[19] = Table 8 dose response, 1 hour post-injection, 1.5 mg/kg
[20] = Table 8 dose response, 1 hour post-injection, 5 mg/kg
[21] = Table 8 dose response, 1 hour post-injection, 10 mg/kg
[22] = Table 8 dose response, 1 hour post-injection, 20 mg/kg
[23] = Table 9 comparison, 5 mg/kg s.c., @ - 2′ (2 h)
[24] = Table 9 comparison, 5 mg/kg s.c., @ - 15″ ([…])
[25] = Table 9 comparison, 5 mg/kg s.c., @ - 30″ (0.5 h)
[26] = Table 9 comparison, 5 mg/kg s.c., @ - 60″ (1 h)

Sequence of CXCR4 (P61073 whole entry): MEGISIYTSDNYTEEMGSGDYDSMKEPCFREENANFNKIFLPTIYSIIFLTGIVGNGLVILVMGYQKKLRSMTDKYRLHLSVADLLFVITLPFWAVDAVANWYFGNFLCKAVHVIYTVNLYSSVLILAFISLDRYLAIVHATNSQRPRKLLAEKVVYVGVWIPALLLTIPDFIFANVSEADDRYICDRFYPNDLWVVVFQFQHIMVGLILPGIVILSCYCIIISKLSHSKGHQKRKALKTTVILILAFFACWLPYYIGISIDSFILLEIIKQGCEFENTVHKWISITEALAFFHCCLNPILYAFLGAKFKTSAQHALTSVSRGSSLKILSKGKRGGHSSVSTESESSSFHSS

NCCCCN(Cc1nc2ccccc2[nH]1)[C@H]1CCCc2cccnc21 [Mavorixafor, mavorixafor]
Time at which increases typically peaked ([1]; 5, 15, 35 mg/kg oral): 12 h
Other hematological effects ([1]; single oral dose 5, 15, 35 mg/kg): No other hematological effects were observed
Hematology results after the 14-day recovery period ([2]; 100 mg/kg dose group): returned to within normal levels
Lymphocytes (abs), increase ([2]; females, 10 mg/kg/d, Day 28): F incr 1.4×
Monocytes (abs), increase [2, 9]: F incr 1.6×†
Neutrophils (abs), increase [2, 9]: F incr 1.9×†
Lymphocytes (abs), increase [2, 10]: F incr 1.6×†
Monocytes (abs), increase [2, 10]: F incr 1.9×†
Neutrophils (abs), increase [2, 10]: F incr 2.3×†
Lymphocytes (abs), increase [2, 11]: F incr 1.4×†
Monocytes (abs), increase [2, 11]: F incr 2.4×†
Neutrophils (abs), increase [2, 11]: F incr 2.8×†
Reticulocytes, decrease [2, 11]: F decr 0.24†
Lymphocytes (abs), increase ([2]; males, 10 mg/kg/d, Day 28): M incr 1.3×;
Monocytes (abs), increase ([2]; males, 10 mg/kg/d, Day 28): M incr 1.2×;
Neutrophils (abs), increase ([2]; males, 10 mg/kg/d, Day 28): M incr 1.2×;
Lymphocytes (abs), increase ([2]; males, 30 mg/kg/d, Day 28): M incr 1.6×;
Monocytes (abs), increase ([2]; males, 30 mg/kg/d, Day 28): M incr 1.3×;
Neutrophils (abs), increase ([2]; males, 30 mg/kg/d, Day 28): M incr 1.2×;
Neutrophils (abs), increase ([2]; males, 100 mg/kg/d, Day 28): M incr 1.8×;
Lymphocytes (abs), increase [2, 12]: M incr 2.3×†;
Monocytes (abs), increase [2, 12]: M incr 1.9×†;
Mode of CXCR4 inhibition [3]: allosteric inhibitor
BFU (BFU-E), Mean [4, 13]: 165.3 per mL of blood
GEMM (CFU-GEMM), Mean [4, 13]: 68.9 per mL of blood
GM (CFU-GM), Mean [4, 13]: 897.5 per mL of blood
BFU (BFU-E), Mean [4, 14]: 99.9 per mL of blood
GEMM (CFU-GEMM), Mean [4, 14]: 37.6 per mL of blood
GM (CFU-GM), Mean [4, 14]: 387.5 per mL of blood
BFU (BFU-E), Mean [4, 15]: 148.8 per mL of blood
GEMM (CFU-GEMM), Mean [4, 15]: 65.6 per mL of blood
GM (CFU-GM), Mean [4, 15]: 785.1 per mL of blood
BFU (BFU-E), Mean [4, 16]: 84.6 per mL of blood
GEMM (CFU-GEMM), Mean [4, 16]: 37.7 per mL of blood
GM (CFU-GM), Mean [4, 16]: 386.3 per mL of blood
BFU (BFU-E), Mean [4, 17]: 230.4 per mL of blood
GEMM (CFU-GEMM), Mean [4, 17]: 99.6 per mL of blood
GM (CFU-GM), Mean [4, 17]: 1273.8 per mL of blood
BFU (BFU-E), Mean [4, 18]: 235.1 per mL of blood
GEMM (CFU-GEMM), Mean [4, 18]: 103.1 per mL of blood
GM (CFU-GM), Mean [4, 18]: 866.0 per mL of blood
BFU (BFU-E), Mean [4, 19]: 143.8 per mL of blood
GEMM (CFU-GEMM), Mean [4, 19]: 53.3 per mL of blood
GM (CFU-GM), Mean [4, 19]: 428.0 per mL of blood
BFU (BFU-E), Mean [4, 20]: 181.6 per mL of blood
GEMM (CFU-GEMM), Mean [4, 20]: 141.0 per mL of blood
GM (CFU-GM), Mean [4, 20]: 1119.8 per mL of blood
BFU (BFU-E), Mean [4, 21]: 268.1 per mL of blood
GEMM (CFU-GEMM), Mean [4, 21]: 224.4 per mL of blood
GM (CFU-GM), Mean [4, 21]: 1444.2 per mL of blood
BFU (BFU-E), Mean [4, 22]: 261.4 per mL of blood
GEMM (CFU-GEMM), Mean [4, 22]: 145.0 per mL of blood
GM (CFU-GM), Mean [4, 22]: 1314.2 per mL of blood
BFU (BFU-E), Mean [4, 23]: 108.5 per mL of blood
GEMM (CFU-GEMM), Mean [4, 23]: 62.4 per mL of blood
GM (CFU-GM), Mean [4, 23]: 619.6 per mL of blood
BFU (BFU-E), Mean [4, 24]: 188.9 per mL of blood
GEMM (CFU-GEMM), Mean [4, 24]: 93.8 per mL of blood
GM (CFU-GM), Mean [4, 24]: 588.3 per mL of blood
BFU (BFU-E), Mean [4, 25]: 151.9 per mL of blood
GEMM (CFU-GEMM), Mean [4, 25]: 79.0 per mL of blood
GM (CFU-GM), Mean [4, 25]: 705.9 per mL of blood
BFU (BFU-E), Mean [4, 26]: 144.3 per mL of blood
GEMM (CFU-GEMM), Mean [4, 26]: 102.2 per mL of blood
GM (CFU-GM), Mean [4, 26]: 761.4 per mL of blood
Increase in circulating white blood cells (leukocytosis) above baseline [5]: 2.9 fold
Terminal half-life [6]: approximately 14.5 hrs
Overall tolerability in clinical studies [7]: generally well tolerated

c1cc(CN2CCCNCCNCCCNCC2)ccc1CN1CCCNCCNCCCNCC1 [AMD3100, plerixafor, reference compound]
BFU (BFU-E), Mean [4, 26]: 207.7 per mL of blood
GEMM (CFU-GEMM), Mean [4, 26]: 138.5 per mL of blood
GM (CFU-GM), Mean [4, 26]: 1950.3 per mL of blood

B1: pegfilgrastim (protein, chains of the INN, looked up)
chain: TPLGPASSLPQSFLLKCLEQVRKIQGDGAALQEKLCATYKLCHPEELVLLGHSLGIPWAPLSSCPSQALQLAGCLSQLHSGLFLYQGLLQALEGISPELGPTLDTLQLDVADFATTIWQQMEELGMAPALQPTQGAMPAFASAFQRRAGGVLVASHLQSFLEVSYRVLRHLAQP
modifications: PEG conjugate, N-terminal methionine
notes: pegylated G-CSF
Bone pain incidence, as high as [8]: 59%
Severe bone pain incidence ([8]; Kirshner et al. 2012): 24%

B2: filgrastim (protein, chains of the INN, looked up)
chain: MTPLGPASSLPQSFLLKCLEQVRKIQGDGAALQEKLCATYKLCHPEELVLLGHSLGIPWAPLSSCPSQALQLAGCLSQLHSGLFLYQGLLQALEGISPELGPTLDTLQLDVADFATTIWQQMEELGMAPALQPTQGAMPAFASAFQRRAGGVLVASHLQSFLEVSYRVLRHLAQP
modifications: N-terminal methionine, recombinant
notes: granulocyte colony-stimulating factor, standard of care for severe chronic neutropenia
Bone pain incidence, as high as [8]: 66%
Bone pain incidence reported on label ([8]; label): 24%
